Assay results: ChEMBL document CHEMBL1201862, “PubChem BioAssay data set” (2004)
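Cultured in 96-well plates, cells were exposed to test compound for 48 hours across five concentrations. GI50 marks 50% less growth.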 Active and inactive are the calls of the source. Rule as the data show it: active = GI50 up to about 1.1 µM and inactive = higher.

Experiments:
Experiment in all cases: NCI-60 cell line screen, 48 h
TK-10 = system: TK-10
SNB-19 = system: SNB-19
SF-268 = system: SF-268
SW-620 = system: SW-620
T47D = system: T47D
MDA-MB-435 = system: MDA-MB-435
NCI-H23 = system: NCI-H23
SNB-75 = system: SNB-75
CAKI-1 = system: CAKI-1
OVCAR-3 = system: OVCAR-3
Malme-3M = system: Malme-3M
HOP-92 = system: HOP-92
RXF 393 = system: RXF 393
SN12C = system: SN12C
A549 = system: A549
HCT-116 = system: HCT-116
MOLT-4 = system: MOLT-4
CCRF-CEM = system: CCRF-CEM
SK-MEL-5 = system: SK-MEL-5
A498 = system: A498
NCI-H226 = system: NCI-H226
ACHN = system: ACHN
OVCAR-5 = system: OVCAR-5
HL-60 = system: HL-60
U-251 = system: U-251
OVCAR-8 = system: OVCAR-8
KM12 = system: KM12
Hs-578T = system: Hs-578T
DU-145 = system: DU-145
SF-295 = system: SF-295
MCF7 = system: MCF7
M14 = system: M14
BT-549 = system: BT-549
MDA-N = system: MDA-N
UO-31 = system: UO-31
SF-539 = system: SF-539
EKVX = system: EKVX
UACC-257 = system: UACC-257
COLO 205 = system: COLO 205
PC-3 = system: PC-3
SR = system: SR
SK-OV-3 = system: SK-OV-3
HCC 2998 = system: HCC 2998
K562 = system: K562
HOP-62 = system: HOP-62
NCI-H460 = system: NCI-H460
SK-MEL-28 = system: SK-MEL-28
HT-29 = system: HT-29
IGROV-1 = system: IGROV-1
786-0 = system: 786-0
MDA-MB-231 = system: MDA-MB-231
OVCAR-4 = system: OVCAR-4
NCI-H522 = system: NCI-H522
UACC-62 = system: UACC-62
HCT-15 = system: HCT-15
SK-MEL-2 = system: SK-MEL-2
NCI/ADR-RES = system: NCI/ADR-RES
LOX IMVI = system: LOX IMVI
RPMI-8226 = system: RPMI-8226

CC1C2CC(CC2=O)C1(C)C (stereo not given)
GI50 (TK-10): > 100 µM (inactive) | GI50 (SNB-19): > 100 µM (inactive) | GI50 (SF-268): > 100 µM (inactive) | GI50 (SW-620): > 100 µM (inactive) | GI50 (T47D): > 100 µM (inactive) | GI50 (MDA-MB-435): > 100 µM (inactive) | GI50 (NCI-H23): > 100 µM (inactive) | GI50 (SNB-75): > 100 µM (inactive) | GI50 (CAKI-1): > 100 µM (inactive) | GI50 (OVCAR-3): > 100 µM (inactive) | GI50 (Malme-3M): > 100 µM (inactive) | GI50 (HOP-92): > 100 µM (inactive) | GI50 (RXF 393): > 100 µM (inactive) | GI50 (SN12C): > 100 µM (inactive) | GI50 (A549): > 100 µM (inactive) | GI50 (HCT-116): > 100 µM (inactive) | GI50 (MOLT-4): > 100 µM (inactive) | GI50 (CCRF-CEM): > 100 µM (inactive) | GI50 (SK-MEL-5): > 100 µM (inactive) | GI50 (A498): > 100 µM (inactive) | GI50 (NCI-H226): > 100 µM (inactive) | GI50 (ACHN): > 100 µM (inactive) | GI50 (OVCAR-5): > 100 µM (inactive) | GI50 (HL-60): > 100 µM (inactive) | GI50 (U-251): > 100 µM (inactive) | GI50 (OVCAR-8): > 100 µM (inactive) | GI50 (KM12): > 100 µM (inactive) | GI50 (Hs-578T): > 100 µM (inactive) | GI50 (DU-145): > 100 µM (inactive) | GI50 (SF-295): > 100 µM (inactive) | GI50 (MCF7): > 100 µM (inactive) | GI50 (M14): > 100 µM (inactive) | GI50 (BT-549): > 100 µM (inactive) | GI50 (MDA-N): > 100 µM (inactive) | GI50 (UO-31): > 100 µM (inactive) | GI50 (SF-539): > 100 µM (inactive) | GI50 (EKVX): > 100 µM (inactive) | GI50 (UACC-257): > 100 µM (inactive) | GI50 (COLO 205): > 100 µM (inactive) | GI50 (PC-3): > 100 µM (inactive) | GI50 (SR): > 100 µM (inactive) | GI50 (SK-OV-3): > 100 µM (inactive) | GI50 (HCC 2998): > 100 µM (inactive) | GI50 (K562): > 100 µM (inactive) | GI50 (HOP-62): > 100 µM (inactive) | GI50 (NCI-H460): > 100 µM (inactive) | GI50 (SK-MEL-28): > 100 µM (inactive) | GI50 (HT-29): > 100 µM (inactive) | GI50 (IGROV-1): > 100 µM (inactive) | GI50 (786-0): > 100 µM (inactive) | GI50 (MDA-MB-231): > 100 µM (inactive) | GI50 (OVCAR-4): > 100 µM (inactive) | GI50 (NCI-H522): > 100 µM (inactive) | GI50 (UACC-62): > 100 µM (inactive)

Cc1csc(-n2nc(C)cc2C)n1
GI50 (TK-10): > 100 µM (inactive) | GI50 (SNB-19): > 100 µM (inactive) | GI50 (SF-268): > 100 µM (inactive) | GI50 (SW-620): > 100 µM (inactive) | GI50 (T47D): > 100 µM (inactive) | GI50 (MDA-MB-435): > 100 µM (inactive) | GI50 (NCI-H23): > 100 µM (inactive) | GI50 (SNB-75): > 100 µM (inactive) | GI50 (CAKI-1): > 100 µM (inactive) | GI50 (OVCAR-3): > 100 µM (inactive) | GI50 (Malme-3M): > 100 µM (inactive) | GI50 (RXF 393): > 100 µM (inactive) | GI50 (SN12C): > 100 µM (inactive) | GI50 (A549): > 100 µM (inactive) | GI50 (HCT-116): > 100 µM (inactive) | GI50 (MOLT-4): 2.38 µM (inactive) | GI50 (CCRF-CEM): > 100 µM (inactive) | GI50 (SK-MEL-5): > 100 µM (inactive) | GI50 (A498): > 100 µM (inactive) | GI50 (HCT-15): > 100 µM | GI50 (NCI-H226): > 100 µM (inactive) | GI50 (ACHN): > 100 µM (inactive) | GI50 (OVCAR-5): > 100 µM (inactive) | GI50 (HL-60): > 100 µM (inactive) | GI50 (SK-MEL-2): > 100 µM (inactive) | GI50 (U-251): > 100 µM (inactive) | GI50 (OVCAR-8): > 100 µM (inactive) | GI50 (KM12): > 100 µM (inactive) | GI50 (Hs-578T): > 100 µM (inactive) | GI50 (NCI/ADR-RES): > 100 µM (inactive) | GI50 (DU-145): > 100 µM (inactive) | GI50 (SF-295): > 100 µM (inactive) | GI50 (MCF7): > 100 µM (inactive) | GI50 (M14): > 100 µM (inactive) | GI50 (BT-549): > 100 µM (inactive) | GI50 (MDA-N): > 100 µM (inactive) | GI50 (UO-31): > 100 µM (inactive) | GI50 (SF-539): > 100 µM (inactive) | GI50 (EKVX): > 100 µM (inactive) | GI50 (LOX IMVI): > 100 µM (inactive) | GI50 (UACC-257): > 100 µM (inactive) | GI50 (COLO 205): > 100 µM (inactive) | GI50 (PC-3): > 100 µM (inactive) | GI50 (SK-OV-3): > 100 µM (inactive) | GI50 (HCC 2998): > 100 µM (inactive) | GI50 (RPMI-8226): > 100 µM (inactive) | GI50 (K562): > 100 µM (inactive) | GI50 (HOP-62): > 100 µM (inactive) | GI50 (NCI-H460): > 100 µM (inactive) | GI50 (SK-MEL-28): > 100 µM (inactive) | GI50 (HT-29): > 100 µM (inactive) | GI50 (IGROV-1): > 100 µM (inactive) | GI50 (786-0): > 100 µM (inactive) | GI50 (MDA-MB-231): > 100 µM (inactive) | GI50 (OVCAR-4): > 100 µM (inactive) | GI50 (NCI-H522): > 100 µM (inactive) | GI50 (UACC-62): > 100 µM (inactive)

CSC1C(=O)Nc2ccc3ccccc3c21 (stereo not given)
GI50 (TK-10): 16.8 µM (inactive) | GI50 (SNB-19): 89.5 µM (inactive) | GI50 (SF-268): 17.4 µM (inactive) | GI50 (SW-620): 20.8 µM (inactive) | GI50 (T47D): 9.71 µM (inactive) | GI50 (MDA-MB-435): > 100 µM (inactive) | GI50 (NCI-H23): > 100 µM (inactive) | GI50 (SNB-75): 22.8 µM (inactive) | GI50 (CAKI-1): 19.1 µM (inactive) | GI50 (Malme-3M): 27.2 µM (inactive) | GI50 (HOP-92): 16.3 µM (inactive) | GI50 (SN12C): 20.6 µM (inactive) | GI50 (A549): > 100 µM (inactive) | GI50 (HCT-116): 15.7 µM (inactive) | GI50 (MOLT-4): 28.1 µM (inactive) | GI50 (CCRF-CEM): 21 µM (inactive) | GI50 (SK-MEL-5): 21.9 µM (inactive) | GI50 (HCT-15): 19.3 µM | GI50 (NCI-H226): 45.5 µM (inactive) | GI50 (ACHN): 27.4 µM (inactive) | GI50 (OVCAR-5): > 100 µM (inactive) | GI50 (HL-60): 1.54 µM (inactive) | GI50 (SK-MEL-2): 27.1 µM (inactive) | GI50 (U-251): 17.8 µM (inactive) | GI50 (OVCAR-8): 17.7 µM (inactive) | GI50 (KM12): 18.6 µM (inactive) | GI50 (Hs-578T): 15.3 µM (inactive) | GI50 (NCI/ADR-RES): 29.6 µM (inactive) | GI50 (DU-145): > 100 µM (inactive) | GI50 (SF-295): > 100 µM (inactive) | GI50 (MCF7): 38.1 µM (inactive) | GI50 (M14): 23.1 µM (inactive) | GI50 (BT-549): 23.8 µM (inactive) | GI50 (MDA-N): 56.5 µM (inactive) | GI50 (UO-31): 16.1 µM (inactive) | GI50 (SF-539): 17.4 µM (inactive) | GI50 (EKVX): 15.8 µM (inactive) | GI50 (LOX IMVI): 15.7 µM (inactive) | GI50 (UACC-257): 19 µM (inactive) | GI50 (COLO 205): 22.9 µM (inactive) | GI50 (PC-3): 16.3 µM (inactive) | GI50 (SK-OV-3): > 100 µM (inactive) | GI50 (HCC 2998): > 100 µM (inactive) | GI50 (RPMI-8226): 3.13 µM (inactive) | GI50 (HOP-62): 34.3 µM (inactive) | GI50 (NCI-H460): > 100 µM (inactive) | GI50 (SK-MEL-28): > 100 µM (inactive) | GI50 (HT-29): > 100 µM (inactive) | GI50 (IGROV-1): 16.6 µM (inactive) | GI50 (786-0): 16.1 µM (inactive) | GI50 (MDA-MB-231): 23.2 µM (inactive) | GI50 (OVCAR-4): 20.2 µM (inactive) | GI50 (NCI-H522): 2.54 µM (inactive) | GI50 (UACC-62): 17.5 µM (inactive)
